The values below come from US10077247B2, “Tricyclic spiro compound” (ONO PHARMACEUTICAL CO., LTD., priority 2015, dated 2018).

A short description of series [1]: Pharmacokinetics test (hepatic microsome stability test). The conditions noted are these: human hepatic microsome 1 mg/mL, 37° C., 60 min, 1 μmol/L.
Another series concerns the target rat EP4 receptor (Rattus norvegicus (Rat), UniProt P43114). As to the kind of experiment: EP4 antagonistic activity measurement using prostanoid receptor subtype expressing cells (cAMP). Type of series: cell-based. The conditions noted are these: CHO cells expressing rat EP4 receptor; inhibition of cAMP production by PGE2 10 nM. As to the method:
CHO cells expressing rat EP4 receptor subtypes were prepared according to the methods of Nishigaki et al. (FEBS Letters, Vol. 364, p. 339-341, 1995), and used for experiment. Cultured subconfluent cells were detached, and suspended in an assay medium (MEM containing 1 mmol/L IBMX, 1% HSA) in a concentration of 1×10^6 cells/mL. For reaction, PGE2 was added to the cell suspension (25 μL) in a final concentration of 10 nmol/L, either alone or as a 25-μL PGE2 solution containing the test compound. After 30 minutes of reaction at room temperature, the amount of cAMP in the cells was quantified according to the method in the descriptions of the cAMP assay kit (CISBIO).
The antagonistic effect (IC50 value) of the test compound was calculated as a value that represents an inhibition rate against a reaction with PGE2 alone at 10 nM, a concentration that produces a submaximal cAMP producing effect.

Sequence of rat EP4 receptor (P43114 whole entry): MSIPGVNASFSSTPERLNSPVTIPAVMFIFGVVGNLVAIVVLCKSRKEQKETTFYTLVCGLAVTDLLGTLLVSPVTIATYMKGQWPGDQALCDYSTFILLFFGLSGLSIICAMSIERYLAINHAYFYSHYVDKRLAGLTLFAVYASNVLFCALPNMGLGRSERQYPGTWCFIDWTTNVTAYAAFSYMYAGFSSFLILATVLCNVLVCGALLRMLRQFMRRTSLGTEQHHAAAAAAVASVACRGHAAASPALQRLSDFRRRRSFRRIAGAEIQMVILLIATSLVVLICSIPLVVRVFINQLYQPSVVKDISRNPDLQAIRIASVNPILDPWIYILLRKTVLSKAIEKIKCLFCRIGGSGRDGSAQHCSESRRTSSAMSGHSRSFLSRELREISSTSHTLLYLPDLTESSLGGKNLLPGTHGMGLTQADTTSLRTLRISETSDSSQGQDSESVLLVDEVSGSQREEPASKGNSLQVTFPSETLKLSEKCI

Take `Cn1nccc1NC(=O)c1ccc2c(c1)[C@]1(CCO2)C[C@H]1C(=O)Nc1cc(C#N)ccc1CCCC(=O)O` [Example 2-43, 4-{4-Cyano-2-[({(2′R,4S)-6-[(1-methyl-1H-pyrazol-5-yl)carbamoyl]-2,3-dihydrospiro[chromene-4,1′-cyclopropan]-2′-yl}carbonyl)amino]phenyl}butanoic acid]: in series [1], the “Remaining rate (%)” value is reported as 100%. Besides, the IC50 (in general, the concentration at which inhibition is half-maximal) against rat EP4 receptor was 3.6 nM.
With `N#Cc1ccc(CCCC(=O)O)c(NC(=O)[C@@H]2C[C@]23CCOc2ccc(N4CCCC4=O)cc23)c1` [Example 7-10, 4-[4-Cyano-2-({[(2′R,4S)-6-(2-oxo-1-pyrrolidinyl)-2,3-dihydrospiro[chromene-4,1′-cyclopropan]-2′-yl]carbonyl}amino)phenyl]butanoic acid], the “Remaining rate (%)” value in series [1] is reported as 89%. Also, the IC50 against rat EP4 receptor worked out at 8.6 nM.
In the case of `CCNC(=O)c1ccc2c(c1)[C@]1(CCO2)C[C@H]1C(=O)Nc1cc(C#N)ccc1CCCC(=O)O` [Example 2-46, 4-[4-Cyano-2-({[(2′R,4S)-6-(ethylcarbamoyl)-2,3-dihydrospiro[chromene-4,1′-cyclopropan]-2′-yl]carbonyl}amino)phenyl]butanoic acid], the “Remaining rate (%)” value in series [1] is 90%. This compound also registered an IC50 on rat EP4 receptor of 3 nM.
Turning to `COCCNC(=O)c1ccc2c(c1)OCC[C@]21C[C@H]1C(=O)Nc1cc(C#N)ccc1CCCC(=O)O` [Example 28-2, 4-{4-Cyano-2-[({(2′R,4S)-7-[(2-methoxyethyl)carbamoyl]-2,3-dihydrospiro[chromene-4,1′-cyclopropan]-2′-yl}carbonyl)amino]phenyl}butanoic acid], the “Remaining rate (%)” value in series [1] came to 100%. This compound also yielded an IC50 against rat EP4 receptor of 6.9 nM.
As for `N#Cc1ccc(CCCC(=O)O)c(NC(=O)[C@@H]2C[C@]23CCOc2ccc(-c4cccnc4)cc23)c1` [Example 7-3, 4-[4-Cyano-2-({[(2′R,4S)-6-(3-pyridinyl)-2,3-dihydrospiro[chromene-4,1′-cyclopropan]-2′-yl]carbonyl}amino)phenyl]butanoic acid], the “Remaining rate (%)” value in series [1] turned out to be 72%. Besides, the IC50 on rat EP4 receptor was 3.8 nM.
The matching figures for `CC(C)NC(=O)c1cc2c(cc1F)OCC[C@]21C[C@H]1C(=O)Nc1cc(C#N)ccc1CCCC(=O)O` [Example 20-5, 4-[4-Cyano-2-({[(2′R,4S)-7-fluoro-6-(isopropylcarbamoyl)-2,3-dihydrospiro[chromene-4, 1′-cyclopropan]-2′-yl]carbonyl}amino)phenyl]butanoic acid]: 100% and 9.5 nM.
Consider `N#Cc1ccc(CCCC(=O)O)c(NC(=O)[C@@H]2C[C@]23CCOc2ccc(C(=O)Nc4ncccn4)cc23)c1` [Example 2-36, 4-[4-Cyano-2-({[(2′R,4S)-6-(2-pyrimidinylcarbamoyl)-2,3-dihydrospiro[chromene-4,1′-cyclopropan]-2′-yl]carbonyl}amino)phenyl]butanoic acid], for which the “Remaining rate (%)” value in series [1] worked out at 100%. Besides, on rat EP4 receptor, the IC50 is 5.4 nM.
The matching figures for `COC[C@H](C)NC(=O)c1ccc2c(c1)[C@]1(CCO2)C[C@H]1C(=O)Nc1cc(C#N)ccc1CCCC(=O)O` [Example 2-4, 4-[4-Cyano-2-({[(2′R,4S)-6-{[(2S)-1-methoxy-2-propanyl]carbamoyl}-2,3-dihydrospiro[chromene-4,1′-cyclopropan]-2′-yl]carbonyl}amino)phenyl]butanoic acid]: 86% and 3.3 nM.
For the compound `CC(C)(C)NC(=O)c1ccc2c(c1)[C@]1(CCO2)C[C@H]1C(=O)Nc1cc(C#N)ccc1CCCC(=O)O` [Example 2-3, 4-{4-Cyano-2-[({(2′R, 4S)-6-[(2-methyl-2-propanyl)carbamoyl]-2,3-dihydrospiro[chromene-4,1′-cyclopropan]-2′-yl}carbonyl)amino]phenyl}butanoic acid], in series [1], the “Remaining rate (%)” value is reported as 91%. Moreover, on rat EP4 receptor, the IC50 was 3.5 nM.
`Cc1nnc(-c2ccc3c(c2)[C@]2(CCO3)C[C@H]2C(=O)Nc2cc(C#N)ccc2CCCC(=O)O)o1` [Example 3, 4-[4-Cyano-2-({[(2′R,4S)-6-(5-methyl-1,3,4-oxadiazol-2-yl)-2,3-dihydrospiro[chromene-4,1′-cyclopropan]-2′-yl]carbonyl}amino)phenyl]butanoic acid]: the “Remaining rate (%)” value in series [1] stood at 100%. Further, half-maximal inhibition against rat EP4 receptor (IC50) was put at 2.7 nM.
With `COCCNC(=O)c1cc2c(cc1F)OCC[C@]21C[C@H]1C(=O)Nc1cc(C#N)ccc1CCCC(=O)O` [Example 20-2, 4-{4-Cyano-2-[({(2′R,4S)-7-fluoro-6-[(2-methoxyethyl)carbamoyl]-2,3-dihydrospiro[chromene-4,1′-cyclopropan]-2′-yl}carbonyl)amino]phenyl}butanoic acid], the “Remaining rate (%)” value in series [1] turned out to be 77%. The IC50 at rat EP4 receptor worked out at 1.6 nM.
Turning to `N#Cc1ccc(CCCC(=O)O)c(NC(=O)[C@@H]2C[C@]23COc2ccc(-c4cccnc4)cc23)c1` [Example 36, 4-[4-Cyano-2-({[(2′R,3S)-5-(3-pyridinyl)spiro[1-benzofuran-3,1′-cyclopropan]-2′-yl]carbony}amino)phenyl]butanoic acid], the “Remaining rate (%)” value in series [1] is given as 93%. The same compound returned an IC50 on rat EP4 receptor of 4.5 nM.
In the case of `CNC(=O)c1cc2c(cc1OC)OCC[C@]21C[C@H]1C(=O)Nc1cc(C#N)ccc1CCCC(=O)O` [Example 33-1, 4-[4-Cyano-2-({[(2′R,4S)-7-methoxy-6-(methylcarbamoyl)-2,3-dihydrospiro[chromene-4,1′-cyclopropan]-2′-yl]carbonyl}amino)phenyl]butanoic acid], the “Remaining rate (%)” value in series [1] is 98%. Moreover, half-maximal inhibition against rat EP4 receptor (IC50) required 10 nM.
The matching figures for `CNC(=O)c1ccc2c(c1)OCC[C@]21C[C@H]1C(=O)Nc1cc(C#N)ccc1CCCC(=O)O` [Example 28-1, 4-[4-Cyano-2-({[(2′R,4S)-7-(methylcarbamoyl)-2,3-dihydrospiro[chromene-4,1′-cyclopropan]-2′-yl]carbonyl}amino)phenyl]butanoic acid]: 91% and 6.4 nM.
As to `CNC(=O)c1cc2c(cc1F)OCC[C@]21C[C@H]1C(=O)Nc1cc(C#N)ccc1CCCC(=O)O` [Example 20-1], in series [1], the “Remaining rate (%)” value is listed as 88%. For the same compound, half-maximal inhibition against rat EP4 receptor (IC50) required 8.5 nM.
The matching figures for `CCOCCNC(=O)c1ccc2c(c1)[C@]1(CCO2)C[C@H]1C(=O)Nc1cc(C#N)ccc1CCCC(=O)O` [Example 2-45, 4-{4-Cyano-2-[({(2′R,4S)-6-[(2-ethoxyethyl)carbamoyl]-2,3-dihydrospiro[chromene-4,1′-cycopropan]-2′-yl}carbonyl)amino]phenyl}butanoic acid]: 100% and 8.3 nM.
As for `N#Cc1ccc(CCCC(=O)O)c(NC(=O)[C@@H]2C[C@]23CCOc2ccc(C(=O)NC4CCC4)cc23)c1` [Example 2-38, 4-[4-Cyano-2-({[(2′R,4S)-6-(cyclobutylcarbamoyl)-2,3-dihydrospiro[chromene-4,1′-cyclopropan]-2′-yl]carbonyl}amino)phenyl]butanoic acid], the “Remaining rate (%)” value in series [1] stood at 100%. For the same compound, on rat EP4 receptor, the midpoint of inhibition, the IC50, lay at 4.7 nM.
Consider `N#Cc1ccc(CCCC(=O)O)c(NC(=O)[C@@H]2C[C@]23CCOc2ccc(-c4ccc(F)cn4)cc23)c1` [Example 10-9, 4-[4-Cyano-2-({[(2′R,4S)-6-(5-fluoro-2-pyridinyl)-2,3-dihydrospiro[chromene-4,1′-cyclopropan]-2′-yl]carbonyl}amino)phenyl]butanoic acid], for which, in series [1], the “Remaining rate (%)” value is given as 75%. This compound also showed an IC50 against rat EP4 receptor of 6.7 nM.
For `Cc1ccc(-c2ccc3c(c2)[C@]2(CCO3)C[C@H]2C(=O)Nc2cc(C#N)ccc2CCCC(=O)O)cn1` [Example 7-16, 4-[4-Cyano-2-({[(2′R,4S)-6-(6-methyl-3-pyridinyl)-2,3-dihydrospiro[chromene-4,1′-cyclopropan]-2′-yl]carbonyl}amino)phenyl]butanoic acid], the “Remaining rate (%)” value in series [1] was determined as 80%. For the same compound, the IC50 on rat EP4 receptor was determined as 5.7 nM.
The matching figures for `N#Cc1ccc(CCCC(=O)O)c(NC(=O)[C@@H]2C[C@]23CCOc2ccc(C(=O)NC4CCCC4)cc23)c1` [Example 2-14, 4-[4 Cyano 2-({[(2′R,4S)-6-(cyclopentylcarbamoyl)-2,3-dihydrospiro[chromene-4,1′-cyclopropan]-2′-yl]carbonyl}amino)phenyl]butanoic acid]: 96% and 4.5 nM.
The matching figures for `CNC(=O)c1ccc2c(c1)[C@]1(CC2)C[C@H]1C(=O)Nc1cc(C#N)ccc1CCCC(=O)O` [Example 18-1, 4-[4-Cyano-2-({[(1R,2R)-6′-(methylcarbamoyl)-2′,3′-dihydrospiro[cyclopropane-1, 1′-inden]-2-yl]carbonyl}amino)phenyl]butanoic acid]: 90% and 1.2 nM.
In the case of `N#Cc1ccc(CCCC(=O)O)c(NC(=O)[C@@H]2C[C@]23CCOc2ccc(-c4cccnn4)cc23)c1` [Example 10-5, 4-[4-Cyano-2-({[(2′R,4S)-6-(3-pyridazinyl)-2,3-dihydrospiro[chromene-4, 1′-cyclopropan]-2′-yl]carbonyl}amino)phenyl]butanoic acid], the “Remaining rate (%)” value in series [1] is recorded as 86%. This compound had an IC50 at rat EP4 receptor of 4.1 nM.
`Cn1cc(NC(=O)c2ccc3c(c2)[C@]2(CCO3)C[C@H]2C(=O)Nc2cc(C#N)ccc2CCCC(=O)O)cn1` [Example 2-5] displayed an IC50 on rat EP4 receptor of 1.3 nM.
